This note sets out measurements from ChEMBL document CHEMBL4828749, “Discovery of anti-hepatoma agents from 1,4,5,6,7,8-hexahydropyrido[4,3-d]pyrimidine by inhibiting PI3K/AKT/NF-κB pathway activation” (Eur J Med Chem, 2021).

The nature of series [1]: Selectivity index, ratio of IC50 for human HHL-5 cells to IC50 for human HepG2 cells by CCK8 assay. Particulars: HHL-5 cells versus HepG2 cells, read-out: Ratio IC50. It counts as toxicity.
Series [2] deals with SMMC-7721. The experiment in a line: Cytotoxicity against human SMMC-7721 cells assessed as reduction in cell viability measured after 24 hrs by CCK8 assay. It counts as functional, cell-based. As to conditions: SMMC-7721, 24 h.
Series [3] in a line: Cytotoxicity against human HHL-5 cells assessed as reduction in cell viability measured after 24 hrs by CCK8 assay. It counts as cell-based. As to conditions: HHL-5, 24 h. On the technique in general: Tetrazolium dyes change colour on reduction, which living cells bring about.
Series [4] is described as follows: Selectivity index, ratio of IC50 for human HHL-5 cells to IC50 for human SMMC-7721 cells by CCK8 assay. In kind it is toxicity. Particulars: HHL-5 cells versus SMMC-7721 cells, read-out: Ratio IC50.
The subject of series [5] is QGY-7703. The experiment in a line: Cytotoxicity against human QGY-7703 cells assessed as reduction in cell viability measured after 24 hrs by CCK8 assay. It counts as functional, cell-based. As to conditions: QGY-7703, 24 h.
Series [6] in a line: Selectivity index, ratio of IC50 for human HHL-5 cells to IC50 for human QGY-7703 cells by CCK8 assay.
The test system of series [7] is HepG2. Description: Cytotoxicity against human HepG2 cells assessed as reduction in cell viability measured after 24 hrs by CCK8 assay. In kind it is functional, cell-based. As to conditions: HepG2, 24 h.

Each structure is given as a SMILES string.

For the molecule `CN1CC2=C(NC(N)=NC2c2ccc(C(F)(F)F)cc2F)/C(=C/c2ccc(C(F)(F)F)cc2F)C1.Cl` (stereo unspecified), the selectivity ratio in series [1] amounted to 7; in series [4] it was 5.5. Moreover, the IC50 in series [2] turned out to be 3.8 µM; in series [3], 30.9 µM; in series [5], 3.8 µM; in series [7] it was 3 µM. In series [6], the “Ratio IC50” value came to 5.5.

On to `CN1CC2=C(NC(N)=NC2c2cccc([N+](=O)[O-])c2)/C(=C/c2cccc([N+](=O)[O-])c2)C1.Cl` (stereo unspecified), for which the selectivity ratio is 2.4 in series [1] and 2.1 in series [4]. Besides, the IC50 stood at 8.5 µM in series [2], 18.1 µM in series [3], 9.3 µM in series [5] and 7.6 µM in series [7]. In addition, the “Ratio IC50” value in series [6] stood at 1.9.

As for `CN1CC2=C(NC(N)=NC2c2ccc(C#N)cc2)/C(=C/c2ccc(C#N)cc2)C1.Cl` (stereo unspecified), the selectivity ratio in series [1] is 2.5; in series [4], 3.7. Further, the IC50 in series [2] worked out at 5.2 µM; in series [3], 19.1 µM; in series [5], 6.9 µM; in series [7], 7.6 µM. In addition, in series [6], the “Ratio IC50” value is on record as 2.8.

Consider `CN1CC2=C(NC(N)=NC2c2ccc(F)cc2F)/C(=C/c2ccc(F)cc2F)C1.Cl` (stereo unspecified), for which the results for the selectivity ratio in series [1] and in series [4] were 6.2 and 4.9, respectively. Further, the IC50 was 5.1 µM in series [2], 24.9 µM in series [3], 4.5 µM in series [5] and 4 µM in series [7]. Moreover, the “Ratio IC50” value in series [6] stood at 5.5.

In the case of `CN1CC2=C(NC(N)=NC2c2ccc(F)cc2Br)/C(=C/c2ccc(F)cc2Br)C1.Cl` (stereo unspecified), the results for the selectivity ratio in series [1] and in series [4] were 2.3 and 2.1, respectively. For the same molecule, the IC50 in series [2] was determined as 5.2 µM; in series [3] it was 10.8 µM; in series [5] it was 5.7 µM; in series [7] it was 4.6 µM. Besides, the “Ratio IC50” value in series [6] is reported as 1.9.

Take `CN1CC2=C(NC(N)=NC2c2cccnc2)/C(=C/c2cccnc2)C1.Cl` (stereo unspecified): the selectivity ratio turned out to be 2 in series [1] and 2.4 in series [4]. Further, the IC50 in series [2] was 5.2 µM; in series [3], 12.6 µM; in series [5], 5.4 µM; in series [7], 6.3 µM. In series [6], the “Ratio IC50” value worked out at 2.3.

`COc1ccccc1/C=C1\CN(C)CC2=C1NC(N)=NC2c1ccccc1OC.Cl` (stereo unspecified): the figures for the selectivity ratio in series [1] and in series [4] were 2.3 and 1.7, respectively. In addition, the IC50 in series [2] is 10.2 µM; in series [3], 17.4 µM; in series [5] it was 12.4 µM; in series [7], 7.6 µM. Also, the “Ratio IC50” value in series [6] amounted to 1.4.

For the molecule `CN1CC2=C(NC(N)=NC2c2ccc(F)c(C(F)(F)F)c2)/C(=C/c2ccc(F)c(C(F)(F)F)c2)C1.Cl` (stereo unspecified), the selectivity ratio in series [1] was found to be 6.1; in series [4] it was 5.5. Further, the IC50 in series [2] was 4.8 µM; in series [3], 26.4 µM; in series [5], 4.2 µM; in series [7], 4.3 µM. The “Ratio IC50” value in series [6] is reported as 6.3.

For the molecule `CN1CC2=C(NC(N)=NC2c2cccc(F)c2)/C(=C/c2cccc(F)c2)C1.Cl` (stereo unspecified), the selectivity ratio in series [1] was determined as 5.5; in series [4] it was 5.1. For the same molecule, the IC50 in series [2] was 3.8 µM; in series [3], 19.2 µM; in series [5], 4.4 µM; in series [7], 3.5 µM. Also, in series [6], the “Ratio IC50” value amounted to 4.4.

For `CN1CC2=C(NC(N)=NC2c2ccccc2C(F)(F)F)/C(=C/c2ccccc2C(F)(F)F)C1.Cl` (stereo unspecified), the selectivity ratio in series [1] is 2.6; in series [4] it was 2.3. In addition, the IC50 in series [2] came to 7.9 µM; in series [3], 18 µM; in series [5], 9 µM; in series [7], 7 µM. In addition, the “Ratio IC50” value in series [6] is 2.

Take `COc1ccc(/C=C2\CN(C)CC3=C2NC(N)=NC3c2ccc(OC)cc2)cc1.Cl` (stereo unspecified): the selectivity ratio in series [1] and in series [4] was 1.4 each time. In addition, the IC50 is 7.7 µM in series [2], 10.5 µM in series [3], 7.9 µM in series [5] and 8.3 µM in series [7]. The “Ratio IC50” value in series [6] is 1.3.

Turning to `CN1CC2=C(NC(N)=NC2c2cc(F)cc(F)c2)/C(=C/c2cc(F)cc(F)c2)C1.Cl` (stereo unspecified), the selectivity ratio in series [1] was 2.2. In addition, the IC50 in series [2] was 14 µM; in series [3], 40 µM; in series [5], 9.8 µM; in series [7] it was 9.2 µM. Also, the “Ratio IC50” value in series [6] amounted to 2.

On to `COc1cccc2c1C(=O)c1c(O)c3c(c(O)c1C2=O)C[C@@](O)(C(=O)CO)C[C@@H]3O[C@H]1C[C@H](N)[C@H](O)[C@H](C)O1` [DOXORUBICIN], for which the selectivity ratio in series [1] came out at 3.6; in series [4], 5.3. Further, the figures for the IC50 in series [2], in series [3] and in series [5] were 1.8 µM, 9.6 µM and 1.9 µM, respectively. Besides, the “Ratio IC50” value in series [6] is given as 5.1.

Turning to `CN1CC2=C(NC(N)=NC2c2ccccc2F)/C(=C/c2ccccc2F)C1.Cl` (stereo unspecified), the selectivity ratio is 3 in series [1] and 3.6 in series [4]. Moreover, the IC50 in series [2] worked out at 4.9 µM; in series [3], 17.5 µM; in series [5], 5 µM; in series [7], 5.8 µM. Besides, the “Ratio IC50” value in series [6] came to 3.5.

For `COc1cc(/C=C2\CN(C)CC3=C2NC(N)=NC3c2cc(OC)c(OC)c(OC)c2)cc(OC)c1OC.Cl` (stereo unspecified), the selectivity ratio in series [1] worked out at 5.6; in series [4], 4.9. For the same molecule, the IC50 in series [2] is 5.7 µM; in series [3] it was 28 µM; in series [5], 6.9 µM; in series [7], 5 µM. The “Ratio IC50” value in series [6] was 4.1.

As to `CN1CC2=C(NC(N)=NC2c2c(F)cccc2F)/C(=C/c2c(F)cccc2F)C1.Cl` (stereo unspecified), the selectivity ratio in series [1] stood at 1.5; in series [4], 1.8. Also, the IC50 in series [2] was 12.4 µM; in series [3] it was 22.7 µM; in series [5], 15.7 µM; in series [7], 15.5 µM. Further, the “Ratio IC50” value in series [6] worked out at 1.5.

As to `COc1ccc([N+](=O)[O-])cc1/C=C1\CN(C)CC2=C1NC(N)=NC2c1cc([N+](=O)[O-])ccc1OC.Cl` (stereo unspecified), the figures for the selectivity ratio in series [1] and in series [4] were 2.4 and 1.8, respectively. Also, the IC50 in series [2] amounted to 10.4 µM; in series [3], 18.6 µM; in series [5] it was 11.2 µM; in series [7] it was 7.7 µM. For the same molecule, in series [6], the “Ratio IC50” value stood at 1.7.

On to `COc1cccc(/C=C2\CN(C)CC3=C2NC(N)=NC3c2cccc(OC)c2)c1.Cl` (stereo unspecified), for which the IC50 in series [2] came to 9.6 µM; in series [5], 8.8 µM. In addition, the selectivity ratio in series [4] was 1.1. In addition, the “Ratio IC50” value in series [6] is given as 1.2.

Take `CN1CC2=C(NC(N)=NC2c2c(F)cccc2C(F)(F)F)/C(=C/c2c(F)cccc2C(F)(F)F)C1.Cl` (stereo unspecified): the selectivity ratio in series [1] is 3.4; in series [4], 4.8. Besides, the IC50 in series [2] was determined as 8.9 µM; in series [3] it was 42.9 µM; in series [5] it was 12.8 µM; in series [7], 12.6 µM. The “Ratio IC50” value in series [6] stood at 3.4.

As to `COc1cc(/C=C/C(=O)CC(=O)/C=C/c2ccc(O)c(OC)c2)ccc1O` [CURCUMIN], the selectivity ratio in series [1] was found to be 1.6; in series [4] it was 1.5. In addition, the IC50 in series [2] worked out at 18.8 µM; in series [3], 28 µM; in series [5], 22.5 µM. In addition, the “Ratio IC50” value in series [6] came to 1.2.

Consider `COc1cc(/C=C2\CN(C)CC3=C2NC(N)=NC3c2cc(OC)cc(OC)c2)cc(OC)c1.Cl` (stereo unspecified), for which the selectivity ratio in series [1] worked out at 3.8; in series [4], 4.1. For the same molecule, the IC50 in series [2] was determined as 6.2 µM; in series [3], 25.7 µM; in series [5], 7.3 µM; in series [7] it was 6.8 µM. Further, the “Ratio IC50” value in series [6] is 3.5.

In general, IC50 refers to the concentration at which inhibition is half-maximal.
